Article PMC12155335, “Phenethyl Acetate as an Agonist of Insect Odorant Receptor Co-Receptor (Orco): Molecular Mechanisms and Functional Insights” (International Journal of Molecular Sciences, 2025)

Tests used:
[1] = tested on: Or1a, Or24a, and Or35a co-expressed with mutant Orco; test: Two-electrode voltage-clamp, Or1a, Or24a, Or35a co-expressed with mutant Orco; type: cell-based, D. melanogaster; details: TEVC, 10 µM octanol, mutant Orco co-expressed with Ors
Experimental: (§1) Xenopus laevis frogs were obtained from the Korean Xenopus Resource Center for Research (KXRCR000001, Gangwon, Republic of Korea). The isolation and maintenance of Xenopus oocytes followed the standardized protocols described by Pyeon et al. and complied with the ethical guidelines of Chonnam National University (CNU IACUC-YB-2016-07, July 2016). Microinjection of 50 ng of mRNA per oocyte was performed using a nanoliter injector (Drummond Scientific, Vernon Hills, IL, USA). Following injection, the oocytes were incubated at 18 °C in a shaking incubator to facilitate optimal protein expression before electrophysiological recordings.
The two-electrode voltage-clamp (TEVC) experiments were conducted following established protocols as described in Lee et al.. This methodology ensures the accurate measurement of odorant receptor activation and has been widely used in previous studies on insect olfactory receptors. The molecular interaction between the odorant receptor (Or) and its ligand was examined using Or-expressing oocytes. […]
(§2) To validate the potential binding sites predicted by 3D protein–ligand docking simulations, molecular characterization was conducted through site-directed mutagenesis. […] The effect of these mutations on PA-binding affinity was evaluated through two-electrode voltage-clamp recordings.

[2] = molecular target: T1, Orco homomers (Drosophila melanogaster, UniProt Q9VNB5); test: Two-electrode voltage-clamp in Xenopus laevis oocytes expressing Orco homomers; type: cell-based; details: for odorant-evoked inward current (activation): Orco alone, −80 mV, octanol 10 μM, PA 10 μM (Figure 2D)
T1 construct: expressed in transfected cells; host or cells: Xenopus laevis oocytes injected with Orco mRNA
T1 sequence (Q9VNB5 1-486): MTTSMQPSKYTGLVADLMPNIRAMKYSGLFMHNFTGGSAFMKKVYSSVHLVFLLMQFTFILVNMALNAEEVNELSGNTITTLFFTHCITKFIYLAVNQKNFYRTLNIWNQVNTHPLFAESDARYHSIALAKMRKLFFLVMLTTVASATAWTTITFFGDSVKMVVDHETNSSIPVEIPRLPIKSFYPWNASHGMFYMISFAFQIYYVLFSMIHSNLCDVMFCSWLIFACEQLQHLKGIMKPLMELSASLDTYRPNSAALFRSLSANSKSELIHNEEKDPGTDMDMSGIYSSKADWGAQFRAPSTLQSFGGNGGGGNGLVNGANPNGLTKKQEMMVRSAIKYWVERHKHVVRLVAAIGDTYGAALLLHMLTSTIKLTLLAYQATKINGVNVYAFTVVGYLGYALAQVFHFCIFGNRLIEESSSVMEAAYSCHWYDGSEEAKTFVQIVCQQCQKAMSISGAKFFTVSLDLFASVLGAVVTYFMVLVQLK
Experimental: (§3) The D. melanogaster Or subunits (Or1a, Or24a, and Or35a) (FlyBase IDs: FBgn0029521, FBgn0026394, and FBgn0028946) and the odorant receptor co-receptor Orco (FlyBase ID: FBgn0037324) were synthesized as complementary DNA by Cosmogenetech (Seoul, Republic of Korea). The synthesized cDNA constructs were subcloned into the pGEM-HE expression vector. Plasmid transformation was performed using Escherichia coli DH5α competent cells, and recombinant plasmids were isolated using a miniprep protocol. The integrity of the cloned sequences was confirmed by Sanger sequencing. For complementary RNA synthesis, D. melanogaster Or1a, Or24a, Or35a, and Orco cDNA were linearized with appropriate restriction endonucleases, and digestion efficiency was verified via agarose gel electrophoresis. In vitro transcription was carried out using T7 RNA polymerase (mMESSAGE mMACHINE T7 Transcription Kit; Thermo Fisher Scientific, Waltham, MA, USA). The resulting mRNA was precipitated, resuspended in DEPC-treated water, and stored at −80 °C for subsequent experiments.
as §1
(§4) The two-electrode voltage-clamp (TEVC) experiments were conducted following established protocols as described in Lee et al.. This methodology ensures the accurate measurement of odorant receptor activation and has been widely used in previous studies on insect olfactory receptors. The molecular interaction between the odorant receptor (Or) and its ligand was examined using Or-expressing oocytes. Electrophysiological recordings were conducted with a two-electrode voltage-clamp system (OC-725C; Warner Instruments, Hamden, CT, USA) and digitized using a Digidata acquisition system (1322A; Molecular Devices, Sunnyvale, CA, USA). The oocyte membrane potential was clamped at −80 mV. Stock solutions of each compound were prepared by dissolving them in ND96 buffer (58.44 mM NaCl, 2 mM KCl, 1 mM MgCl2, 1.8 mM CaCl2, 5 mM HEPES, pH of 7.4) at the appropriate concentrations before use. […]
(§5) All values are presented as the mean ± S.E.M. (standard error of the mean) following data analysis. Data collected using the two-electrode voltage-clamp technique were analyzed with SigmaPlot 10.0 software. […]

[3] = molecular target: T2, Or24a/Orco (Drosophila melanogaster, UniProt P81913+Q9VNB5); test: Two-electrode voltage-clamp in Xenopus laevis oocytes expressing Or24a/Orco; type: cell-based, D. melanogaster; details: TEVC; for odorant-evoked inward current (activation): −80 mV, octanol 10 μM, PA 10 μM (Figure 2B)
T2 construct: expressed in transfected cells; host or cells: Xenopus laevis oocytes injected with in vitro transcribed mRNA (pGEM-HE)
T2 sequence (P81913 1-398): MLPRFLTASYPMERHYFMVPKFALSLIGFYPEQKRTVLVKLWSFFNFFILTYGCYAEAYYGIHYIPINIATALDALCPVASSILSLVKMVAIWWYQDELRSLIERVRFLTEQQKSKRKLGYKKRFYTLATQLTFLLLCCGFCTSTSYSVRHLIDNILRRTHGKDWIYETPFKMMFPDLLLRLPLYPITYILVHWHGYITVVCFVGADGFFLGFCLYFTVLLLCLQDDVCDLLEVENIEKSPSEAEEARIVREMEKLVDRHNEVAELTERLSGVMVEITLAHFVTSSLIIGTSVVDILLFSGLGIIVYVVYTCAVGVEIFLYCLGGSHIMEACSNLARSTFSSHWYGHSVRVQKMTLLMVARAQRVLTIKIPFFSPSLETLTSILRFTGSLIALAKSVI
T2 sequence (Q9VNB5 1-486): T1 sequence (Q9VNB5 1-486)
Experimental: as §3, §1
(§6) The two-electrode voltage-clamp (TEVC) experiments were conducted following established protocols as described in Lee et al.. […]
as §5

[4] = molecular target: T3, Or35a/Orco (Drosophila melanogaster, UniProt Q9V3Q2+Q9VNB5); test: Two-electrode voltage-clamp in Xenopus laevis oocytes expressing Or35a/Orco; type: cell-based, D. melanogaster; details: TEVC; for odorant-evoked inward current (activation): −80 mV, octanol 10 μM, PA 10 μM (Figure 2C)
T3 construct: expressed in transfected cells; host or cells: Xenopus laevis oocytes injected with in vitro transcribed mRNA (pGEM-HE)
T3 sequence (Q9V3Q2 1-409): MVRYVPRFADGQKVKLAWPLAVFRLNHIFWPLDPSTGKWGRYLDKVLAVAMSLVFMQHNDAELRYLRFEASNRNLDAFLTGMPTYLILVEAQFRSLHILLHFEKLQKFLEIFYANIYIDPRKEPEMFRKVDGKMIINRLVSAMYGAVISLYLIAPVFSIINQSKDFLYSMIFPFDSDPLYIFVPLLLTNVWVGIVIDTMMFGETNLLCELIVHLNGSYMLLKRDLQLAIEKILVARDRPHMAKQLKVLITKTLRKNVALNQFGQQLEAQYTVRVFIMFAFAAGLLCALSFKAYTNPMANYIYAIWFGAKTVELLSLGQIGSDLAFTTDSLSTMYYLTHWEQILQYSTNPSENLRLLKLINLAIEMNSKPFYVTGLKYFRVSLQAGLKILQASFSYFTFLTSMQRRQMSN
T3 sequence (Q9VNB5 1-486): T1 sequence (Q9VNB5 1-486)
Experimental: as §3, §1, §6, §5

[5] = molecular target: T4, Or1a/Orco (Drosophila melanogaster, UniProt Q9VNB5+Q9W5G6); test: Two-electrode voltage-clamp in Xenopus laevis oocytes expressing Or1a/Orco; type: cell-based, D. melanogaster; details: TEVC; for odorant-evoked inward current (activation): −80 mV, octanol 30 μM, PA 10 μM (Figure 2A)
T4 construct: expressed in transfected cells; host or cells: Xenopus laevis oocytes injected with in vitro transcribed mRNA (pGEM-HE)
T4 sequence (Q9W5G6 1-392): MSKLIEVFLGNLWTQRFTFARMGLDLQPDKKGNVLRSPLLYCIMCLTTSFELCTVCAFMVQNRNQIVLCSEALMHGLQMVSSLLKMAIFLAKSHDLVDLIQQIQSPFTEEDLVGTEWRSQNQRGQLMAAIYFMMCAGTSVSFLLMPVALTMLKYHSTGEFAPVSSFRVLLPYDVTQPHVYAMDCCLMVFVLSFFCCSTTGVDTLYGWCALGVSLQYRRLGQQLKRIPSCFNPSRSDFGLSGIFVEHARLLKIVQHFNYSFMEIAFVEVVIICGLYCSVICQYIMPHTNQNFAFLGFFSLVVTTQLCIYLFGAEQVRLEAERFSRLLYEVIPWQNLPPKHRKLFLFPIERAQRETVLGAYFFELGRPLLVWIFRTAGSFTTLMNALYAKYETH
T4 sequence (Q9VNB5 1-486): T1 sequence (Q9VNB5 1-486)
Experimental: as §3, §1, §6, §5

[6] = molecular target: E153A Orco (Drosophila melanogaster, UniProt Q9VNB5); test: Two-electrode voltage-clamp, E153A mutant Orco; type: cell-based, D. melanogaster; details: TEVC
Experimental: as §1, §6, §2, §5

[7] = tested on: double mutation (W146A + E153A) Orco; test: Two-electrode voltage-clamp, double-mutant Orco; type: cell-based, D. melanogaster; details: TEVC (Figure 5)
Experimental: as §1, §6, §2, §5

[8] = molecular target: W146A Orco (Drosophila melanogaster, UniProt Q9VNB5, W150A); test: Two-electrode voltage-clamp, W146A mutant Orco; type: cell-based, D. melanogaster
Experimental: as §1, §6, §2, §5

[9] = tested on: uninjected oocytes; test: Two-electrode voltage-clamp control on uninjected oocytes; type: cell-based, Xenopus laevis; details: control experiment, TEVC
Experimental: as §1
as §4, with “mV.” for “mV. Stock solutions of each compound were prepared by dissolving them in ND96 buffer (58.44 mM NaCl, 2 mM KCl, 1 mM MgCl2, 1.8 mM CaCl2, 5 mM HEPES, pH of 7.4) at the appropriate concentrations before use.”

[10] = Xenopus oocytes, holding potential −80 mV, mean ± SEM, read-out: half-maximal effective concentration (EC50)

Sequence of W146A Orco (Q9VNB5 whole entry W150A): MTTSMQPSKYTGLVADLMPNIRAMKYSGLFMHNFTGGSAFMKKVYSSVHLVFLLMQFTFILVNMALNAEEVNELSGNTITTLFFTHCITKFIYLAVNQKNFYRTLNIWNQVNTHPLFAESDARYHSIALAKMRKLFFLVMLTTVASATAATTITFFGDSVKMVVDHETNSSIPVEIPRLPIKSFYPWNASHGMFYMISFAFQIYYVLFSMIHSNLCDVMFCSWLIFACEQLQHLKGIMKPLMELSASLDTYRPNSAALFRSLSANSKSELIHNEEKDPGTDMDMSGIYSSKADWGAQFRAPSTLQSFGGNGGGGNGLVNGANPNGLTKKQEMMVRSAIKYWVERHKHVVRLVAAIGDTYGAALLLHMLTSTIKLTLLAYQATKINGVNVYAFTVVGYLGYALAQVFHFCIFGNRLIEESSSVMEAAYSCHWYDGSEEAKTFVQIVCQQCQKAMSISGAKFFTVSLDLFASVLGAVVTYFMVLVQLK

Structure (SMILES)	activation by octanol with mutant Orco [1]	odorant-evoked inward current (activation) ([2]; TEVC)	odorant-evoked inward current (activation) [3]	odorant-evoked inward current (activation) [4]	odorant-evoked inward current (activation) [5]	EC50 ([6]; E153A Orco homomers, Xenopus oocytes, −80 mV) [µM]	PA-induced currents versus wild type ([6]; single mutation E153A, 10 µM PA (Figure 5))	PA activation versus wild type [7]	EC50 [8] [µM]	PA-induced currents versus wild type ([8]; single mutation W146A, TEVC, 10 µM PA (Figure 5))	voltage dependence of activation (current–voltage relationship) ([2]; voltage ramps, PA 0.3 µM and 3 µM, Orco homomeric receptor (Figure 3D))	EC50 ([2]; wild-type Orco homomers, TEVC, Xenopus oocytes, holding potential −80 mV, mean ± SEM, read-out: half-maximal effective concentration (EC50)) [µM]	EC50 [3, 10] [µM]	effect on uninjected oocytes [9]	EC50 [4, 10] [µM]	EC50 [5, 10] [µM]
CCCCCCCCO [octanol, reference compound]	remained consistent	failed to activate	induced robust inward currents	induced robust inward currents	induced robust inward currents	–	–	–	–	–	–	–	–	–	–	–
CC(=O)OCCc1ccccc1 [PA, phenethyl acetate]	–	induced inward currents	induced inward currents	induced inward currents	induced inward currents	12.8 ± 1.9	significantly reduced	nearly abolished	17.9 ± 2.1	significantly reduced	voltage-independent activation	0.4 ± 0.2	2.8 ± 0.2	no effect	5.9 ± 1.1	2.1 ± 1.2
